The values below come from US20170190744A1 (Vicuron Pharmaceuticals, Inc., priority 2015, published 2017).

In brackets after ≈: the same amount, converted by molar mass. Where two headings read alike, the source gives them in different places.

One series deals with human α-glycoprotein. Put plainly: Protein binding by isothermal titration microcalorimetry. To be noted: 25° C.
Series [1] is described as follows: ESI mass spectroscopy of multimers in solution. It is filed as physicochemical. As to conditions: ESI-MS.
Method: Experiments were performed using an Applied Biosystem API III+ mass spectrometer equipped with a TurbolonSpray source, a Triple Quadrupole analyzer, operating in positive ion mode.
The mass spectra were obtained in electrospray positive mode on a Finnigan LCQ^Deca ion trap instrument previously tuned and calibrated in electrospray mode using Ultramark 1621, caffeine and MRFA (L-metionyl-arginyl-phenilalanyl-arginine).
Another series concerns MRSA Staph. aureus 3817. Put plainly: MIC (microbiological activity). It is filed as cell-based. To be noted: Staphylococcus aureus.
The test system of a further series is gram-positive bacteria. Put plainly: MIC by broth microdilution (NCCLS), IsoB0 and reference compounds. It is filed as cell-based. As to the method:
Müller Hinton broth (Difco Laboratories, Detroit, Mich., USA) adjusted with CaCl2 and MgCl2 to a final concentrations of 20 mg/L and 10 mg/L respectively.
Adult bovine serum (BS) (batch A05123-159 PAA Laboratories GmBH Haidmannweg Pasching Austria).
The microorganisms used are reference standard strains from the American Type Culture Collection (ATCC, Rockville, USA), Smith Kline and French Laboratories (SKF) and the Upjohn Company (UC, Kalamazoo, Mich., USA).
(§1) MICs were determined by the broth microdilution methodology following the standard NCCLS procedure, with or without 30% bovine serum, using bacterial inocula of approximately 5×10^5 CFU/mL. Tests were read after 20-24 h incubation at 35° C.

Series [2] concerns CR-BSI due to gram-positive bacterial pathogens. Put plainly: Catheter-related blood stream infection (CR-BSI) trial: efficacy. It is filed as in vivo, human. To be noted: microbiological ITT population; dalbavancin 1000 mg day 1 + 500 mg day 8 IV; vancomycin 1000 mg IV every 12 hours. The text has this: This study evaluated the safety and efficacy (clinical and microbiological) of a weekly dosing regimen of dalbavancin in the treatment of adults with catheter-related blood stream infection (CR-BSI) due to gram-positive bacterial pathogens, relative to the standard care of treatment, vancomycin.
Patients with CR-BSI due to suspected or known Gram-positive pathogen(s) who met the inclusion/exclusion criteria were randomized to one of two treatment arms in this open-label, comparative, multi-center study. Dalbavancin was administered once weekly in weekly dalbavancin and comparator (vancomycin) was administered daily in vancomycin. Catheter removal was required for patients with Staphylococcus aureus infection; catheter management was left to the Investigator's discretion for patients with coagulase-negative staphylococci (CoNS) infection. Efficacy was clinically based on the improvement or resolution of clinical signs and symptoms of CR-BSI such that no additional antibacterials were warranted, and microbiologically on the eradication or presence of the baseline or other pathogens. […]
Efficacy was evaluated based on clinical and microbiological responses.
For the primary efficacy analysis, 95% confidence intervals were also determined, and for prognostic factor analyses using the primary efficacy variable, logistic regression was used.

Series [3] deals with Candida albicans SKF 2270. Put plainly: MIC by broth microdilution (NCCLS), with or without 30% bovine serum (Example 19). It is filed as cell-based. As to conditions: Candida albicans, SKF2270. As to the method: MICs were determined by the broth microdilution methodology following the standard NCCLS procedure (NCCLS Document M7-A6, Vol. 23, No. 2, “Methods for dilution antimicrobial susceptibility tests for bacteria that grow aerobically.” Approved Guideline. January 2003, which can be herein incorporated by reference in its entirety), with or without 30% adult bovine serum (BS) (PAA Laboratories GmBH, Haidmannweg Pasching Austria), using bacterial innocula at approximately 5×10^5 CFU/ml. The media employed included cation-adjusted Müller Hinton broth (Difco Laboratories, Detroit, Mich.) that was used that was adjusted with CaCl2 and MgCl2 to a final concentration of 20 mg/L and 10 mg/L, respectively. Tests were read following 20-24 hours of incubation at 35° C.

For series [4], the system named is gram-negative bacteria. The series is described as above. In kind it is cell-based. As to the method:
(§2) The compounds were prepared according to the examples above and the methods described in U.S. Patent Application Publication No. 2004/0142883. Individual dalbavancin compounds were purified by HPLC. […] Before dissolution, each sample was analyzed by HPLC and quantified. […] Louis, Mo.), Gentamycin (GE) (Sigma Chemical Co., St. Louis, Mo.), Penicillin G (Pen.G) (Sigma Chemical Co., St. Louis, Mo.), and Amphotericin B (Amph.B) (Sigma Chemical Co., St. Louis, Mo.). The microorganisms used were reference strains obtained from the American Type Culture Collection (ATCC) (Rockville, Md.), SmithKline and French Laboratories (SKF), and the Upjohn Company (UC) (Kalamazoo, Mich.).

The test system of a further series is gram positive bacteria. Described as above. In kind it is cell-based. As to the method: as §2
Series [5] relates to gram-negative bacteria. Put plainly: MIC by broth microdilution (NCCLS), IsoB0 and reference compounds. In kind it is cell-based. As to the method: as §1
The test system of series [6] is MSSA Staph. aureus Smith 819. Put plainly: MIC (microbiological activity). In kind it is cell-based. To be noted: Staphylococcus aureus.
The subject of a further series is Candida albicans SKF2270. Put plainly: MIC by broth microdilution (NCCLS), IsoB0 and reference compounds. It is filed as cell-based.
The mark [7] stands for this setting: Enterococcus faecalis, ATCC7080.
Setting [8] is: Enterococcus faecalis, ATCC29212.
Setting [9] is: Staphylococcus aureus, ATCC19636.
Setting [10] is: Staphylococcus aureus, ATCC29213.
[11] abbreviates: Staphylococcus epidermidis, ATCC12228.

Method for human α-glycoprotein: For comparison, similar experiments with some necessary modifications were performed using teicoplanin.
Teicoplanin was studied with human albumin and α-glycoprotein.
Integrated heat effects, after correction for heats of dilution, were analyzed by non-linear regression using a simple single-site binding model with the standard Microcal ORIGIN software package. Raw data (μcal/sec) for each injection were integrated to give the total heat effect per addition, then divided by amount of injectant to give kcal/mole of injectant. The same integration was applied for control dilution effects, and this was subtracted from the actual titration data. This provided a differential of the binding curve in which the extent of binding is proportional to the total heat liberated (or absorbed). This was then analyzed by non-linear regression methods in terms of various standard binding models. The simplest model assumes simple non-competitive binding equilibrium, and gives three parameters:

With teicoplanin, at human α-glycoprotein, the “apparent binding affinity Ka, α-glycoprotein” value is listed as 0.07 (±0.01) × 10^5M^−1. The multimers in solution result in series [1] is listed as “does not show multimeric complexes”.
In the case of `CN[C@H](CC(C)C)C(=O)N[C@H]1C(=O)N[C@@H](CC(N)=O)C(=O)N[C@H]2C(=O)N[C@H]3C(=O)N[C@H](C(=O)N[C@H](C(=O)O)c4cc(O)cc(O)c4-c4cc3ccc4O)[C@H](O)c3ccc(c(Cl)c3)Oc3cc2cc(c3O[C@@H]2O[C@H](CO)[C@@H](O)[C@H](O)[C@H]2O[C@H]2C[C@](C)(N)[C@H](O)[C@H](C)O2)Oc2ccc(cc2Cl)[C@H]1O` [Vancomycin, vancomycin, reference compound], the MIC was 0.5 µg/mL (≈ 0.345 µM) with MRSA Staph. aureus 3817; 1 µg/mL (≈ 0.69 µM) against gram-positive bacteria (setting [7]); 2 µg/mL (≈ 1.38 µM) against gram-positive bacteria (setting [8]); 1 µg/mL (≈ 0.69 µM) with gram-positive bacteria (setting [9]); 2 µg/mL (≈ 1.38 µM) with gram-positive bacteria (setting [10]); 2 µg/mL (≈ 1.38 µM) against gram-positive bacteria (setting [11]). In addition, the MIC with gram-positive bacteria (Streptococcus pneumoniae, UC41) is 0.5 µg/mL (≈ 0.345 µM); with gram-positive bacteria (Streptococcus pyogenes), 1 µg/mL (≈ 0.69 µM); in [3], more than 128 µg/mL; against gram-negative bacteria [4], more than 128 µg/mL; with gram-negative bacteria [4] (Escherichia coli), more than 128 µg/mL; with gram-negative bacteria [4] (Escherichia coli, ATCC25922), more than 128 µg/mL. The MIC against gram-negative bacteria [4] (Proteus vulgaris, ATCC881) was more than 128 µg/mL; in the series on gram positive bacteria, 1 µg/mL (≈ 0.69 µM); with gram positive bacteria (setting [7]), 1 µg/mL (≈ 0.69 µM); in the series with gram positive bacteria (setting [8]), 2 µg/mL (≈ 1.38 µM); against gram positive bacteria (setting [9]) it was 1 µg/mL (≈ 0.69 µM); against gram positive bacteria (setting [10]), 2 µg/mL (≈ 1.38 µM). In addition, the MIC in the series with gram positive bacteria (setting [11]) was 2 µg/mL (≈ 1.38 µM); against gram positive bacteria (Streptococcus pneumoniae, UC41), 0.5 µg/mL (≈ 0.345 µM); in the series on gram-negative bacteria [5], more than 128 µg/mL; against gram-negative bacteria [5] (Escherichia coli), more than 128 µg/mL; with gram-negative bacteria [5] (Escherichia coli, ATCC25922), more than 128 µg/mL; in the series on gram-negative bacteria [5] (Proteus vulgaris, ATCC881), more than 128 µg/mL. Moreover, the values for the MIC (in series [6]; in the series on Candida albicans SKF2270) were 0.5 µg/mL (≈ 0.345 µM) and more than 128 µg/mL, respectively. For the same molecule, in series [2], the “overall response success rate at TOC” value came out at 50.0%.
